# Experiments:
# recombinant human DHODH = target: T1, recombinant human DHODH (Homo sapiens, UniProt Q02127); test: Inhibition assay of DHODH activity (human enzyme); type: biochemical
# T1 construct: provided by Prof; M. Löffler, Marburg, Germany (gift, not purchased)
# Experimental: (§1) The standard assay mixture contained 50 μM decyclo ubichinone, 100 μM dihydroorotate, 60 μM 2,6-dichloroindophenol, as well as 20 mU DHODH. The volume activity of the recombinant enzyme used was 30 U/ml. Measurements were conducted in 50 mM TrisHCl (150 mM KCl, 0,1% Triton X-100, pH. 8,0) at 30° C. in a final volume of 1 ml. The components were mixed, and the reaction was started by adding dihydroorotate. The course of reaction was followed by spectrophotometrically measuring the decrease in absorption at 600 nm for 2 min.
# (§2) Inhibitory studies were conducted in a standard assay with additional variable amounts of inhibitor.
# (§3) These investigations were carried out with recombinant human as well as with recombinant murine DHODH provided by Prof. M. Löffler, Marburg, Germany [M. Löffler, Chem. Biol. Interact.
# recombinant murine DHODH = target: T2, recombinant murine DHODH (Mus musculus, UniProt O35435); test: Inhibition assay of DHODH activity (murine enzyme); type: biochemical; settings: numeric values or words
# T2 construct: provided by Prof; M. Löffler, Marburg, Germany (gift, not purchased)
# Experimental: as §1, §2, §3
# [1] = tested on: human lymphocyte cell proliferation; test: Proliferation Assay of Human T-Cells; type: cell-based; settings: 100 μM, activated human MNC, 48 hours
# Experimental: Buffy coats of healthy donors were obtained from the local Red Cross; from these human mononuclear cells (MNC) were isolated using Accuspin™ System-Histopaque-1077 (Sigma) according to the protocol recommended by the manufacturer. Cells were seeded at densities of 5×10^4 or 1×10^5 cells per well in 96 well flat bottom plates in RPMI 1640 supplemented with 10% fetal calf serum, 2 mM L-glutamine and penicillin/streptomycin. Cells were activated with 1 μg/ml phytohaemagglutinin (PHA, Sigma) or 20 nM PMA (phorbol-12-myristate-13-acetate)/10 μM ionomycin (Calbiochem) and incubated with the test compounds in a final volume of 100 μl for 48 hours. Proliferation was measured using the CellTiter 96® Aqueous One Solution Cell Proliferation Assay (Promega) according to the lymphocyte assay protocol supplied by the manufacturer.
# T1 sequence (Q02127 whole entry): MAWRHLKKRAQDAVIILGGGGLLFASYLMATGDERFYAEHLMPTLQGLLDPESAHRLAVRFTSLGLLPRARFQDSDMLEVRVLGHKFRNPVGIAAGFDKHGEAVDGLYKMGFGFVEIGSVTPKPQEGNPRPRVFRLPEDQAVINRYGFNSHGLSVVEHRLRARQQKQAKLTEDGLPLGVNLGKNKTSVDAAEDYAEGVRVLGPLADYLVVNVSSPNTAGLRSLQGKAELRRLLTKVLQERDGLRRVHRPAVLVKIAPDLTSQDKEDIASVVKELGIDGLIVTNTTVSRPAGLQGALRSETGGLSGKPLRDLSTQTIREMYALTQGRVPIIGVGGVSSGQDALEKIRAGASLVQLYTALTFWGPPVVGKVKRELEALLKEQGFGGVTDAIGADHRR
# T2 sequence (O35435 whole entry): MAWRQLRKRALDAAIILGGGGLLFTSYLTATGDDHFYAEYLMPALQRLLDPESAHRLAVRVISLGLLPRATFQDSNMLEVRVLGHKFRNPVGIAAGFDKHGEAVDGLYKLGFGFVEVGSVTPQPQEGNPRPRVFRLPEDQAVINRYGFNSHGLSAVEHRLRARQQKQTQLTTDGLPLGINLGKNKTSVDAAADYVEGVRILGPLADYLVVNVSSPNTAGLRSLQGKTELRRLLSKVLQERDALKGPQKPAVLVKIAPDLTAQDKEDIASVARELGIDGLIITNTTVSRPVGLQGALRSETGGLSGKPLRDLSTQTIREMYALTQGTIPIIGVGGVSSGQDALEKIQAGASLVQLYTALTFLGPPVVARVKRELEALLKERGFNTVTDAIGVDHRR
smiles,measurement,setting,value
"O=C(O)C1=C(C(=O)Nc2ccc(-c3ccccc3)cc2)CCC1 [Compound 02, 2-(Biphenyl-4-ylcarbamoyl)-cyclopent-1-enecarboxylic acid]",IC50,recombinant human DHODH,0.69 µM
same,IC50,recombinant murine DHODH,4 µM
same,reduction of human lymphocyte cell proliferation,[1],40%
